Test results from patent US20110039721A1, “METHOD FOR PREDICTION ABOUT CARCINOGENICITY OF SUBSTANCE IN RODENT” (Chemicals Evaluation and Research Institute, priority 2007, published 2011).

Tested on: mRNA expressed from the genes (A) to (D) in rat liver
Experiment: Behavior of genes (mRNA expression level, oligo-DNA microarray) in rat liver after 28-day oral administration
Format: in vivo
Procedure: A test solution was prepared by dissolving each of the carcinogens and the non-carcinogens shown in Tables 2 to 6 in the corresponding solvent shown in Tables 2 to 6. Each of the thus prepared test solutions and the solvents used for the preparation was administered by oral gavage to rats in each group. As the rats, male rats (F344 SPF rats) at 5 weeks of age obtained from Charles River Laboratories Japan, Inc. were used. The animals were divided into groups, each containing four individuals. The volume of the solvent administered to the vehicle control group was set to the same volume as that of the test solution administered to the carcinogen administration group or the non-carcinogen administration group. The administration of the test solution or the solvent was performed once daily for 28 days. Apiece was excised from the liver of each of the rats after a lapse of 28 days from the initiation of the administration, and the total RNA was extracted and purified.
The expression level of mRNA was compared between each of the chemical substance administration groups and the corresponding vehicle control group, and genes that satisfy the requirements described in (A) to (D) were selected, respectively.
The case where the expression level of mRNA in the carcinogen administration group or the non-carcinogen administration group is 1.5 times or more or 1/1.5 or less of the expression level of the corresponding mRNA expressed in the control group was determined to be significant. In this connection, the determination as to whether or not the change is significant was performed by taking into consideration the direction of increase or decrease in the expression level. In the case where the direction of increase or decrease is different as compared with the case where another carcinogen was administered, the change was determined to be not significant.

[1] = gene group (A), Unigene No. Rn.167075, mRNA vs vehicle control group
[2] = gene group (C), Unigene No. Rn.120914, mRNA vs vehicle control group
[3] = (C), Unigene Rn.120914, defined direction +, rat liver, oral once daily 28 days

**Q.** What does the source list for Clc1c(Cl)c(Cl)c(Cl)c(Cl)c1Cl [TS020, Hexachlorobenzene]?
**A.** Behavior of gene caused by administration of chemical substance, Gene No. 4846 (gene group (A), Unigene No. Rn.144554, mRNA vs vehicle control group): −; Behavior of gene caused by administration of chemical substance, Gene No. 2026 [1]: −; Behavior of gene caused by administration of chemical substance, Gene No. 4218 [1]: −; Behavior of gene caused by administration of chemical substance, Gene No. 6182 (gene group (A), Unigene No. Rn.5834, mRNA vs vehicle control group): +; Behavior of gene caused by administration of chemical substance, Gene No. 5600 (gene group (A), Unigene No. Rn.9836, mRNA vs vehicle control group): −; Behavior of gene caused by administration of chemical substance, Gene No. 1494 (gene group (B), Unigene No. Rn.1430, mRNA vs vehicle control group): +; Behavior of gene caused by administration of chemical substance, Gene No. 2045 (gene group (B), Unigene No. Rn.19329, mRNA vs vehicle control group): +; Behavior of gene caused by administration of chemical substance, Gene No. 2203 (gene group (B), Unigene No. Rn.21240, mRNA vs vehicle control group): +; Behavior of gene caused by administration of chemical substance, Gene No. 533 (gene group (C), Unigene No. Rn.106184, mRNA vs vehicle control group): +; Behavior of gene caused by administration of chemical substance, Gene No. 725 (gene group (C), Unigene No. Rn.108075, mRNA vs vehicle control group): −; Behavior of gene caused by administration of chemical substance, Gene No. 1163 (gene group (C), Unigene No. Rn.11766, mRNA vs vehicle control group): −; Behavior of gene caused by administration of chemical substance, Gene No. 4973 (gene group (C), Unigene No. Rn.118529, mRNA vs vehicle control group): −; Behavior of gene caused by administration of chemical substance, Gene No. 4095 (gene group (C), Unigene No. Rn.119024, mRNA vs vehicle control group): −; Behavior of gene caused by administration of chemical substance, Gene No. 1334 [2]: −; Behavior of gene caused by administration of chemical substance, Gene No. 6620 [2]: −; Behavior of gene caused by administration of chemical substance, Gene No. 6303 (gene group (C), Unigene No. Rn.123063, mRNA vs vehicle control group): −; Behavior of gene caused by administration of chemical substance, Gene No. 5878 (gene group (C), Unigene No. Rn.143213, mRNA vs vehicle control group): −; Behavior of gene caused by administration of chemical substance, Gene No. 1131 (gene group (C), Unigene No. Rn.144946, mRNA vs vehicle control group): −; Behavior of gene caused by administration of chemical substance, Gene No. 1562 (gene group (C), Unigene No. Rn.14744, mRNA vs vehicle control group): −; Behavior of gene caused by administration of chemical substance, Gene No. 1741 (gene group (C), Unigene No. Rn.1647, mRNA vs vehicle control group): −; Behavior of gene caused by administration of chemical substance, Gene No. 893 (gene group (C), Unigene No. Rn.164817, mRNA vs vehicle control group): −; Behavior of gene caused by administration of chemical substance, Gene No. 6026 (gene group (C), Unigene No. Rn.167685, mRNA vs vehicle control group): −; Behavior of gene caused by administration of chemical substance, Gene No. 154 (gene group (C), Unigene No. Rn.185941, mRNA vs vehicle control group): −; Behavior of gene caused by administration of chemical substance, Gene No. 1993 (gene group (C), Unigene No. Rn.18728, mRNA vs vehicle control group): −; Behavior of gene caused by administration of chemical substance, Gene No. 813 (gene group (C), Unigene No. Rn.201760, mRNA vs vehicle control group): −; Behavior of gene caused by administration of chemical substance, Gene No. 2494 (gene group (C), Unigene No. Rn.23969, mRNA vs vehicle control group): −; Behavior of gene caused by administration of chemical substance, Gene No. 2546 (gene group (C), Unigene No. Rn.24561, mRNA vs vehicle control group): −; Behavior of gene caused by administration of chemical substance, Gene No. 3776 (gene group (C), Unigene No. Rn.43232, mRNA vs vehicle control group): −; Behavior of gene caused by administration of chemical substance, Gene No. 3929 (gene group (C), Unigene No. Rn.4620, mRNA vs vehicle control group): −; Behavior of gene caused by administration of chemical substance, Gene No. 1119 (gene group (C), Unigene No. Rn.9757, mRNA vs vehicle control group): −; Behavior of gene caused by administration of chemical substance, Gene No. 6742 (gene group (C), Unigene No. Rn.9779, mRNA vs vehicle control group): −; Behavior of gene caused by administration of chemical substance, Gene No. 5634 (gene group (C), Unigene No. Rn.9862, mRNA vs vehicle control group): −; Behavior of gene caused by administration of chemical substance, Gene No. 5726 (gene group (D), Unigene No. Rn.9939, mRNA vs vehicle control group): −

**Q.** Which “Behavior of gene caused by administration of chemical substance, Gene No. 4846” value ((A), Unigene Rn.144554, defined direction +, rat liver, oral once daily 28 days) does the source give for C1COCCO1 [TS027, 1,4-Dioxane] here?
**A.** +

**Q.** And the “Behavior of gene caused by administration of chemical substance, Gene No. 4218” value ((A), Unigene Rn.167075, defined direction +, rat liver, oral once daily 28 days, significant = 1.5 times or more or 1/1.5 or less of control)?
**A.** +

**Q.** And the “Behavior of gene caused by administration of chemical substance, Gene No. 2026” value ((A), Unigene Rn.167075, defined direction −, rat liver, oral once daily 28 days)?
**A.** +

**Q.** And the “Behavior of gene caused by administration of chemical substance, Gene No. 6182” value ((A), Unigene Rn.5834, defined direction +, rat liver, oral once daily 28 days)?
**A.** +

**Q.** And the “Behavior of gene caused by administration of chemical substance, Gene No. 5600” value ((A), Unigene Rn.9836, defined direction +, rat liver, oral once daily 28 days)?
**A.** +

**Q.** What about the “Behavior of gene caused by administration of chemical substance, Gene No. 1494” value ((B), Unigene Rn.1430, defined direction −, rat liver, oral once daily 28 days) of the same compound?
**A.** +

**Q.** And the “Behavior of gene caused by administration of chemical substance, Gene No. 2045” value ((B), Unigene Rn.19329, defined direction +, rat liver, oral once daily 28 days)?
**A.** −

**Q.** And the “Behavior of gene caused by administration of chemical substance, Gene No. 2203” value ((B), Unigene Rn.21240, defined direction +, rat liver, oral once daily 28 days)?
**A.** −

**Q.** What about the “Behavior of gene caused by administration of chemical substance, Gene No. 533” value ((C), Unigene Rn.106184, defined direction +, rat liver, oral once daily 28 days) of the same compound?
**A.** +

**Q.** What about the “Behavior of gene caused by administration of chemical substance, Gene No. 725” value ((C), Unigene Rn.108075, defined direction −, rat liver, oral once daily 28 days) of the same compound?
**A.** −

**Q.** And the “Behavior of gene caused by administration of chemical substance, Gene No. 1163” value ((C), Unigene Rn.11766, defined direction +, rat liver, oral once daily 28 days)?
**A.** −

**Q.** What about the “Behavior of gene caused by administration of chemical substance, Gene No. 4973” value ((C), Unigene Rn.118529, defined direction −, rat liver, oral once daily 28 days) of the same compound?
**A.** −

**Q.** What about the “Behavior of gene caused by administration of chemical substance, Gene No. 4095” value ((C), Unigene Rn.119024, defined direction −, rat liver, oral once daily 28 days) of the same compound?
**A.** −

**Q.** What about the “Behavior of gene caused by administration of chemical substance, Gene No. 1334” value [3] of the same compound?
**A.** −

**Q.** What about the “Behavior of gene caused by administration of chemical substance, Gene No. 6620” value [3] of the same compound?
**A.** −

**Q.** What about the “Behavior of gene caused by administration of chemical substance, Gene No. 6303” value ((C), Unigene Rn.123063, defined direction −, rat liver, oral once daily 28 days) of the same compound?
**A.** −

**Q.** And the “Behavior of gene caused by administration of chemical substance, Gene No. 5878” value ((C), Unigene Rn.143213, defined direction −, rat liver, oral once daily 28 days)?
**A.** −

**Q.** And the “Behavior of gene caused by administration of chemical substance, Gene No. 1131” value ((C), Unigene Rn.144946, defined direction −, rat liver, oral once daily 28 days)?
**A.** −

**Q.** And the “Behavior of gene caused by administration of chemical substance, Gene No. 1562” value ((C), Unigene Rn.14744, defined direction −, rat liver, oral once daily 28 days)?
**A.** +

**Q.** And the “Behavior of gene caused by administration of chemical substance, Gene No. 1741” value ((C), Unigene Rn.1647, defined direction −, rat liver, oral once daily 28 days)?
**A.** +

**Q.** And the “Behavior of gene caused by administration of chemical substance, Gene No. 893” value ((C), Unigene Rn.164817, defined direction +, rat liver, oral once daily 28 days)?
**A.** −

**Q.** What about the “Behavior of gene caused by administration of chemical substance, Gene No. 6026” value ((C), Unigene Rn.167685, defined direction −, rat liver, oral once daily 28 days) of the same compound?
**A.** −

**Q.** And the “Behavior of gene caused by administration of chemical substance, Gene No. 154” value ((C), Unigene Rn.185941, defined direction −, rat liver, oral once daily 28 days)?
**A.** +

**Q.** What about the “Behavior of gene caused by administration of chemical substance, Gene No. 1993” value ((C), Unigene Rn.18728, defined direction −, rat liver, oral once daily 28 days) of the same compound?
**A.** +

**Q.** And the “Behavior of gene caused by administration of chemical substance, Gene No. 813” value ((C), Unigene Rn.201760, defined direction +, rat liver, oral once daily 28 days)?
**A.** +

**Q.** And the “Behavior of gene caused by administration of chemical substance, Gene No. 2494” value ((C), Unigene Rn.23969, defined direction +, rat liver, oral once daily 28 days)?
**A.** −

**Q.** And the “Behavior of gene caused by administration of chemical substance, Gene No. 2546” value ((C), Unigene Rn.24561, defined direction −, rat liver, oral once daily 28 days)?
**A.** −

**Q.** What about the “Behavior of gene caused by administration of chemical substance, Gene No. 3776” value ((C), Unigene Rn.43232, defined direction −, rat liver, oral once daily 28 days) of the same compound?
**A.** −

**Q.** And the “Behavior of gene caused by administration of chemical substance, Gene No. 3929” value ((C), Unigene Rn.4620, defined direction +, rat liver, oral once daily 28 days)?
**A.** −

**Q.** And the “Behavior of gene caused by administration of chemical substance, Gene No. 1119” value ((C), Unigene Rn.9757, defined direction +, rat liver, oral once daily 28 days)?
**A.** +

**Q.** And the “Behavior of gene caused by administration of chemical substance, Gene No. 6742” value ((C), Unigene Rn.9779, defined direction +, rat liver, oral once daily 28 days)?
**A.** +

**Q.** What about the “Behavior of gene caused by administration of chemical substance, Gene No. 5634” value ((C), Unigene Rn.9862, defined direction −, rat liver, oral once daily 28 days) of the same compound?
**A.** −

**Q.** And the “Behavior of gene caused by administration of chemical substance, Gene No. 5726” value ((D), Unigene Rn.9939, defined direction −, rat liver, oral once daily 28 days)?
**A.** −
